For this assay, the target named is glutaminyl cyclase (QC) (Homo sapiens (Human), UniProt Q16769). The note with it: QC inhibition, 30° C.
glutaminyl cyclase (QC), sequence (Q16769 29-361): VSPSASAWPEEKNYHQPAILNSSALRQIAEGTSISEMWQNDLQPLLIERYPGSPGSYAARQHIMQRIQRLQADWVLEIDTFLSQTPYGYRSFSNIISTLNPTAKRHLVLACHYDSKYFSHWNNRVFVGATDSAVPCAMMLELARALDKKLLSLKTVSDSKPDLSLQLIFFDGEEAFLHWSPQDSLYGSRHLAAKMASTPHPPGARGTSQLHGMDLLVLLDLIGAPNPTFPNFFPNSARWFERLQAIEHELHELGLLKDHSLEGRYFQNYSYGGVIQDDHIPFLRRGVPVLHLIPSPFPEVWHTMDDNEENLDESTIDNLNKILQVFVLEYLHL
Protocol: All measurements were performed with a BioAssay Reader HTS-7000Plus for microplates (Perkin Elmer) at 30° C. QC activity was evaluated fluorometrically using H-Gln-βNA. The samples consisted of 0.2 mM fluorogenic substrate, 0.25 U pyroglutamyl aminopeptidase (Unizyme, Hørsholm, Denmark) in 0.2 M Tris/HCl, pH 8.0 containing 20 mM EDTA and an appropriately diluted aliquot of QC in a final volume of 250 μl. Excitation/emission wavelengths were 320/410 nm. The assay reactions were initiated by addition of glutaminyl cyclase. QC activity was determined from a standard curve of β-naphthylamine under assay conditions. One unit is defined as the amount of QC catalyzing the formation of 1 μmol pGlu-βNA from H-Gln-βNA per minute under the described conditions.
In a second fluorometric assay, QC was activity determined using H-Gln-AMC as substrate. Reactions were carried out at 30° C. utilizing the NOVOStar reader for microplates (BMG labtechnologies). The samples consisted of varying concentrations of the fluorogenic substrate, 0.1 U pyroglutamyl aminopeptidase (Qiagen) in 0.05 M Tris/HCl, pH 8.0 containing 5 mM EDTA and an appropriately diluted aliquot of QC in a final volume of 250 μl. Excitation/emission wavelengths were 380/460 nm. The assay reactions were initiated by addition of glutaminyl cyclase. […] The kinetic data were evaluated using GraFit software.
Samples consisted of the respective QC substrate, 0.3 mM NADH, 14 mM α-Ketoglutaric acid and 30 U/ml glutamate dehydrogenase in a final volume of 250 μl. […] All samples were measured at 30° C., using either the [sequence]luor Plus or the Sunrise (both from TECAN) reader for microplates. Kinetic data was evaluated using GraFit software.
For inhibitor testing, the sample composition was the same as described above, except of the putative inhibitory compound added. For a rapid test of QC-inhibition, samples contained 4 mM of the respective inhibitor and a substrate concentration at 1 KM. For detailed investigations of the inhibition and determination of Ki-values, influence of the inhibitor on the auxiliary enzymes was investigated first. […] The inhibitory constant was evaluated by fitting the set of progress curves to the general equation for competitive inhibition using GraFit software.
Consider `S=C(Nc1ccc2[nH]cnc2c1)N1CCCCC1` [Example 69, N-(1H-benzo[d]imidazol-5-yl)piperidine-1-carbothioamide], for which the half-inhibitory concentration (IC50) stood at 172 µM.
In the case of `S=C(Nc1ccc2[nH]cnc2c1)N1CCOCC1` [Example 68, N-(1H-benzo[d]imidazol-5-yl)morpholine-4-carbothioamide], the half-inhibitory concentration (IC50) stood at 169 µM.
The compound `CN(Cc1ccc(F)cc1)C(=S)Nc1ccc2[nH]cnc2c1` [Example 65, 1-(4-fluorobenzyl)-3-(1H-benzo[d]imidazol-5-yl)-1-methylthiourea] showed an IC50 of 404 µM.
With `Fc1ccc(N2CCN(C(=S)Nc3ccc4[nH]cnc4c3)CC2)cc1` [Example 70, N-(1H-benzo[d]imidazol-5-yl)-4-(4-fluorophenyl)piperazine-1-carbo-thioamide] the figure was 323 µM; with `S=C(Nc1ccc2[nH]cnc2c1)N1CCCC1` [Example 67, N-(1H-benzo[d]imidazol-5-yl)pyrrolidine-1-carbothioamide], 258 µM; with `Fc1ccc(C2CCCN2C(=S)Nc2ccc3[nH]cnc3c2)cc1` (stereo not drawn) [Example 66, N-(1H-benzo[d]imidazol-5-yl)-2-(4-fluorophenyl)pyrrolidine-1-carbo-thioamide], 128 µM.

By IC50 is commonly meant the point on the concentration scale where inhibition reaches its midpoint. Read a high IC50 as a need for much substance.

For the origin of these results see US9656991B2, “Inhibitors of glutaminyl cyclase” (PROBIODRUG AG, priority 2007, dated 2017).
